Laboratory results: patent US12018029B2, “Hexahydropyrrolo[3,4-c]pyrrole derivatives useful as LOX inhibitors” (THE INSTITUTE OF CANCER RESEARCH: ROYAL CANCER HOSPITAL, priority 2018, dated 2024)
Where two headings read alike, the source gives them in different places. Each block holds one compound with its values, some of them ahead of it.

What was measured:
[1] = biological target: T1, LOX (Mus musculus, UniProt P28301); experiment: LOX activity in cysts assay (roGFP2 LOX biosensor in MDCK cysts); format: cell-based; details: for IC50: read-out: LOX biosensor IC50 (cyst); for inhibition at 10 µM: read-out: LOX biosensor inhibition (cyst) @ 10 μM
T1 construct: Full length LOX cDNA was then PCR cloned into pEGFP-N1 (Clonetech), or biosensor vector proGFP2-N1; expressed in transfected cells; host or cells: MDCK cells grown as cysts on Matrigel
T1 sequence (P28301 163-411): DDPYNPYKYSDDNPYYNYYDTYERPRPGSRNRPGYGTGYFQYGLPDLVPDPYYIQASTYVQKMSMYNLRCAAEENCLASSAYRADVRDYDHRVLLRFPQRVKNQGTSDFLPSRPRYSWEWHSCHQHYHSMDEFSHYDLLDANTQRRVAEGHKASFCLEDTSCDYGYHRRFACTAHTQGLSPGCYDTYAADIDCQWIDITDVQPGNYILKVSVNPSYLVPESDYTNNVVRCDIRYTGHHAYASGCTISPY
Protocol: LOX Activity in Cysts Assay (Tang et al, 2017).
Cell Culture and Transfection
Cell lines were purchased from American Type Culture Collection (ATCC). […] MDCK cell lines were cultured in Dulbecco's Modified Eagle Medium (DMEM):F12 media supplemented with 10% foetal bovine serum (FBS) and 1% Penicillin Streptomycin solution (Pen Strep). Cells were incubated at 37° C. in a humidified incubator with 5% CO2. Lipofectamine 3000 or lentivirus was used to transfect MDCK cells with GFP constructs and cells were selected with G418 (Life Technologies) at 5 mg/ml. Cell culture reagents were purchased from Life Technologies.
To produce MDCK cysts, cells were cultured on Matrigel (Corning) with 2% Matrigel supplemented in DMEM with 10% FBS. Cysts were allowed to form for 10 days before subsequent studies.
Cloning of LOX Expression Constructs
Mouse LOX cDNA was purchased from OriGene. Full length LOX cDNA was then PCR cloned into pEGFP-N1 (Clonetech), or biosensor vector proGFP2-N1 (Hanson, 2004) using the following primers, […] (forward primer) and […] (reverse primer). For the insertion into pEGFP-N1 or proGFP2-N1, NheI and XhoI restriction sites were added to forward and reverse primers accordingly. Mutant LOX constructs were made using QuickChange II site-directed mutagenesis kit (Agilent Technologies) following manufacture's protocol using LOX-GFP as template. To generate, roGFP2 versions of LOX mutant constructs, LOX mutant cDNA was transferred from pEGFP-N1 to proGFP2-N1 using NheI and XhoI.
Confocal Imaging and Imaging Analysis
Photomicrographs of live MDCK cysts with a Leica TCS SP8 X confocal system were used to image the biosensor. The oxidised biosensor was excited using a 405 nm laser, while the reduced biosensor was excited with a 488 nm laser. Emission of the biosensor was recorded at 500 nm˜530 nm range using sequential scans. Ratio images were generated following a published protocol {Kardash, 2011 #376}. Note, while the published protocol generates YFP/CFP ratio images, we used it to generate Oxidised/Reduced (roGFP2 ratio) ratio images. The roGFP2 ratio at the basal surface of MDCK cysts was used to indicate LOX inhibition. LOX inhibitors were added 30 min prior to imaging.
The inhibition of LOX in cysts treated with LOX inhibitors compared to control (DMSO vehicle treated) cysts is shown in Table 2. For clarity, readout for DMSO treated cysts represents 0% inhibition (no inhibition) and readout for BAPN at 1 mM is used as 100% inhibition (full inhibition).

[2] = test system: PDAC KP^flC (LOX H1 clone) cells; experiment: PDAC allograft, primary tumour, p53 wt, LOX o/e; format: in vivo, mouse; details: ratio of average tumour volume treated/vehicle; 200 mg/kg po qd; p<0.05
[3] = test system: PDAC KPC TRP53 R172H (p53 mut) cells; experiment: PDAC allograft, primary tumour, R172H (p53 mut); format: in vivo, mouse; details: ratio of average tumour volume treated/vehicle; 200 mg/kg po qd; p<0.05
Protocol: (§1) All procedures involving animals were approved by the Animal Welfare and Ethical Review Body of the Institute of Cancer Research and Cancer Research UK Manchester Institute in accordance with National Home Office regulations under the Animals (Scientific Procedures) Act 1986 and according to the guidelines of the Committee of the National Cancer Research Institute Tumour size was determined by caliper measurements of tumour length, width and depth and volume was calculated as volume=0.5236×length×width×depth (mm).
PDAC allografts: CD1 nu/nu female mice at 6 weeks of age were inoculated subcutaneously in the right flank with 2×10^6 PDAC KPC TRP53 R172H (p53 mut) cells at 100 ul suspension per animal. […] Tumours and weights are measured twice weekly using calipers. […] Frozen samples kept at −80 degree centigrade until being analysed and the fixed samples stained according to the desired marker.
(§2) For therapeutic efficacy assessment, the ratio of average tumour volume between compound treated and vehicle control treated (T/C) is calculated. […] The efficacy of LOX inhibitors described in this invention, as measured by T/C in a pancreatic cancer model, a colorectal cancer model and a breast cancer model is shown in Table 3 and is significant (p<0.05) for all the data presented.

[4] = test system: SW620 human colorectal carcinoma cells (mutant RAS); experiment: SW620 xenografts, primary tumour; format: in vivo; details: ratio of average tumour volume treated/vehicle; 200 mg/kg po qd; p<0.05
Protocol: as §1
SW620 xenografts: NCr mice were inoculated subcutaneously in the right flank with 5×10^6 SW620 cells at 100 ul suspension per animal. Groups of 7-8 mice were assigned to treatment following stratified allocation of tumour volumes with a median size of circa 100 mm^3. […] Tumours and weights are measured twice weekly using calipers. […] Frozen samples are kept at −80 degree centigrade until being analysed and the fixed samples stained according to the desired marker.
as §2

[5] = test system: MDA-MB-231 human breast adenocarcinoma; experiment: MDA-MB-231 xenografts, primary tumour; format: in vivo; details: ratio of average tumour volume treated/vehicle; 200 mg/kg po qd; p<0.05
Protocol: as §1
MDA-MB-231 xenografts. […] Tumours and weights are measured twice weekly using calipers and the animals can be imaged using non-invasive method by bioluminescence using IVIS 200 imaging machine, weekly using 150 mg/kg luciferin administrate intraperitoneal or subcutaneous. […] Frozen samples kept at −80 degree centigrade until being analyzed and the fixed samples stained according to desired marker.
as §2

[6] = test system: MMTV-PyMT mammary tumours; experiment: MMTV-PyMT transgenic mouse breast cancer model, primary tumour; format: in vivo, mice; details: ratio of average tumour volume treated/vehicle; @67 mpk po qd; p<0.05
Protocol: as §1
(§3) LOX Inhibitor Treatment of a Transgenic Mouse Breast Cancer Model
MMTV-PyMT (Guy et al, 1992) (FVB) female mice were randomized by non-statistical methods to LOX inhibitor treatment groups from day 70 post-birth, when animals had no detectable tumour. […] Tumour size was determined unblinded by caliper measurements of tumour length, width and depth and volume was calculated as 0.5236×length×width×depth (mm). […]
as §2

[7] = test system: MMTV-PyMT lung metastases; experiment: MMTV-PyMT transgenic mouse breast cancer model, lung metastases; format: in vivo, mice; details: @67 mpk po qd, p<0.05
Protocol: as §3
MMTV-PyMT (Guy et al, 1992) (FVB) female mice were randomized by non-statistical methods to LOX inhibitor treatment groups from day 70 post-birth, when animals had no detectable tumour. Mice were treated daily by oral gavage with LOX inhibitor in vehicle, or daily vehicle (5% DMSO/2.5% Tween20 in water) by oral gavage. Tumour size was determined unblinded by caliper measurements of tumour length, width and depth and volume was calculated as 0.5236×length×width×depth (mm). In all experiments, mice were humanely killed and mammary tumours and lungs were collected when the primary tumours reached ethical limits or signs of ill health.
For lung metastases quantification, all mouse tissue samples were fixed in 10% formalin (Sigma) and embedded in paraffin. […] Lung metastases number was counted and area was measured using ImageScope. […] The ratio of average metastases surface between compound treated and vehicle control treated (T/C) is calculated. The ratio of average metastases numbers between compound treated and vehicle control treated (T/C) is also calculated. […] The antimetastatic efficacy of LOX inhibitors described in this invention, as measured by T/C in a model of breast cancer metastasizing to lungs is shown in Table 3 and is significant (p<0.05) for all the data presented.

[8] = 10 μM, MDCK cysts, DMSO = 0% inhibition, BAPN at 1 mM = 100% inhibition, inhibitors added 30 min prior to imaging

SMILES: CCOc1ccc(N2C[C@]3(C)CN(C(=O)NCCO)C[C@]3(C)C2)cc1 [Example 3, cis-5-(4-Ethoxyphenyl)-N-(2-hydroxyethyl)-3a,6a-dimethylhexahydropyrrolo[3,4-c]pyrrole-2(1H)-carboxamide]
IC50 ([1]; MDCK cysts): 1620 nM | inhibition at 10 µM ([1]; MDCK): 100% | T/C, PDAC (mouse pancreatic carcinoma) primary tumour b) p53wt, LOX o/e [2]: b) 0.42 | T/C, PDAC (mouse pancreatic carcinoma) primary tumour a) R172H (p53mut) [3]: a) 0.58

SMILES: C[C@@]12CN(C(=O)NCCO)C[C@]1(C)CN(c1ccc(N3CCS(=O)(=O)CC3)cc1)C2 [Example 30, cis-5-(4-(1,1-Dioxidothiomorpholino)phenyl)-N-(2-hydroxyethyl)-3a,6a-dimethylhexahydropyrrolo[3,4-c]pyrrole-2(1H)-carboxamide]
inhibition at 10 µM [1, 8]: 59%

SMILES: CCOc1ccc(N2C[C@H]3CN(CCCC#N)C[C@H]3C2)cc1 [Example 2, cis-4-(5-(4-Ethoxyphenyl)hexahydropyrrolo[3,4-c]pyrrol-2(1H)-yl)butanenitrile]
inhibition at 10 µM [1, 8]: 65%

SMILES: CCOc1ccc(N2C[C@H]3CN(C(=O)Oc4ccc([N+](=O)[O-])cc4)C[C@H]3C2)cc1 [Example 18, 4-Nitrophenyl 5-(4-ethoxyphenyl)hexahydropyrrolo[3,4-c]pyrrole-2(1H)-carboxylate]
inhibition at 10 µM [1, 8]: 97%

SMILES: C[C@@]12CN(C(=O)NCCO)C[C@]1(C)CN(c1ccc(N3CCN(S(C)(=O)=O)CC3)cc1)C2 [Example 28, cis-N-(2-Hydroxyethyl)-3a,6a-dimethyl-5-(4-(4-(methylsulfonyl)piperazin-1-yl)phenyl)hexahydropyrrolo[3,4-c]pyrrole-2(1H)-carboxamide]
inhibition at 10 µM [1, 8]: 94%

SMILES: CCOc1ccc(N2C[C@H]3CN(C(=O)NCCO)C[C@H]3C2)cc1 [Example 1, cis-5-(4-Ethoxyphenyl)-N-(2-hydroxyethyl)hexahydropyrrolo[3,4-c]pyrrole-2(1H)-carboxamide]
IC50 ([1]; MDCK cysts): < 560 nM | T/C, PDAC (mouse pancreatic carcinoma) primary tumour b) p53wt, LOX o/e [2]: b) 0.35 | T/C, SW620 human colorectal carcinoma cells (mutant RAS) - primary tumour [4]: 0.55 | T/C, MDA-MB-231 human breast adenocarcinoma - primary tumour [5]: 0.29 | T/C, PDAC (mouse pancreatic carcinoma) primary tumour a) R172H (p53mut) [3]: a) 0.54 | T/C, MMT-PyMT breast transgenic model - primary tumour [6]: 0.3 | T/C, MMT-PyMT breast transgenic model - metastases a) Count ([7]; ratio of average lung metastases numbers treated/vehicle): a) 0.14 | T/C, MMT-PyMT breast transgenic model - metastases b) Area ([7]; ratio of average lung metastases surface treated/vehicle): b) 0.02

SMILES: O=C(NC1CCCCC1)N1C[C@@H]2CN(c3ccc(N4CCS(=O)(=O)CC4)cc3)C[C@@H]2C1 [Example 9, cis-N-Cyclohexyl-5-(4-(1,1-dioxidothiomorpholino)phenyl)hexahydropyrrolo[3,4-c]pyrrole-2(1H)-carboxamide]
inhibition at 10 µM [1, 8]: 100%

More lines, now with the values ahead:

inhibition at 10 µM [1, 8]: 72%
SMILES: CCOc1ccc(N2C[C@H]3CN(C(=O)N4CCC(C#N)CC4)C[C@H]3C2)cc1 [Example 42, 1-(cis-5-(4-ethoxyphenyl)octahydropyrrolo[3,4-c]pyrrole-2-carbonyl)piperidine-4-carbonitrile]

inhibition at 10 µM [1, 8]: 100%
SMILES: N#CCCCN1C[C@@H]2CN(c3ccc(N4CCS(=O)(=O)CC4)cc3)C[C@@H]2C1 [Example 32, cis-4-(5-(4-(1,1-Dioxidothiomorpholino)phenyl)hexahydropyrrolo[3,4-c]pyrrol-2(1H)-yl)butanenitrile]

inhibition at 10 µM [1, 8]: 100%
SMILES: CCOc1ccc(N2C[C@H]3CN(C(=O)N4CCOCC4)C[C@H]3C2)cc1 [Example 37]
